Reference: PMC10424179, “Disrupting Kaposi’s Sarcoma-Associated Herpesvirus (KSHV) Latent Replication with a Small Molecule Inhibitor” (Journal of Medicinal Chemistry, 2023)

Tests used:
Caco-2 cell permeability = type: in vitro ADME; details: human, pH 7.4, Caco-2 monolayer, apical to basolateral
Procedure: The next step was an in vitro ADMET profiling of the best seven compounds so far: 9, 11, 14, 19, 20, 21, and 27. The compounds were tested for their kinetic solubility (1% DMSO in PBS, pH 7.4), lipophilicity (chromatographic Log D7.4 value), cellular permeability (using Caco-2 cells), and metabolic stability (using mouse and human liver S9 fractions) (see Table 3).
MTT Assay: Viability of HEK293 cells ~48 hours after treatment […]
Fig S4: MTT assay for compounds 11, 14, 19, 20 and 21 using HEK293 cells. Values are means of […]
Permeability of the compounds was assessed using Caco2 monolayers grown on Transwell® (3460 Costar, Corning). In brief, cells were seeded 60.000 cells/well in 12-well Transwell plates in DMEM medium supplemented with 10% FCS and 1% NEAA. Cells were grown for 7 to 9 days with medium replacement every other day until they reached a tight monolayer. Tightness was defined as transepithelial resistance (TEER) values >300 Ω/cm² (measured using an EVOM Volt-Ohmmeter, World Precision Instruments). At the day of permeability as say, the compound stock solutions in DMSO were diluted to 10µM in Krebs -Ringer-buffer (KRB, pH 7.4). Cells treated with KRB only served as control. Monolayer was washed two times with prewarmed KRB and incubated with 500 µl sample on the apical compartment. Samples from the basolateral side were drawn at t = 0, 15, 30, 60, 120, 180 and 300 min and replaced with fresh buffer. The plates were incubated for 5 h in a cell culture incubator with lateral shaking (200 rpm). TEER values were measured again at the end of the permeability test. Compound concentration was determined with HPLC-ESI-MS/MS in SRM mode and calculated for the cumulative transport. Values are means of three replicates.

[1] = target: T1, oligomerization-deficient mutant of a LANA C-terminal protein fragment (aa 1008–1146) (Human herpesvirus 8 (Kaposi's sarcoma-associated herpesvirus), UniProt Q76SB0); assay: Microscale thermophoresis (MST) binding assay; set-up: species or system Kaposi's sarcoma-associated herpesvirus (KSHV); details: read-out: KD value (MST); LANA aa 1008–1146 mutant; means of at least three replicates
T1 sequence (Q76SB0 1008-1146): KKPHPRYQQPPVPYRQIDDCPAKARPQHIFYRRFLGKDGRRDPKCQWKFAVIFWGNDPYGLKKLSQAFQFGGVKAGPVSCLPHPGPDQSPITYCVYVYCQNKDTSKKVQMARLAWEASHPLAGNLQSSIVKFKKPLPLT
From the text: In these assays, an oligomerization-deficient mutant of a LANA C-terminal protein fragment (aa 1008–1146) and an oligonucleotide representing LANA-binding site (LBS) 1 were used, which are convenient to use and handle for the described biophysical methods, while maintaining the essential DNA-binding interface.[25]
Equation y = A2 + (A1-A2)/(1 + (x/x0)^p)
1.3 Microscale Thermophoresis (MST) Assay
Microscale Thermophoresis Assay was done as mentioned in a previous publication. 2

## COc1ccc(-c2cc(C)c(-n3cc(-c4ccc(C(=O)O)cc4)nn3)cn2)c(Cl)c1 [Compound 20]
Caco-2 cell permeability
  Papp A→B at 5 h, 10 µM: 10.3 ± 2.3 ×10⁻⁶ cm/s
[1]
  Kd: 14.1 ± 3.9 µM
